Measured values from BindingDB's records for patent US20230382911 (Hoffmann-La Roche, 2023).

target: S-adenosylmethionine synthase isoform type-2 (Homo sapiens, UniProt P31153); assay: Measurement of Mat2A inhibition is performed in 384 well format absorbance-based assay
Description: Recombinant human Mat2a (12.5 nM) and serial diluted compounds in DMSO (range of concentrations from 10 μM to […]) or controls (DMSO) are incubated for 15 minutes at room temperature (RT) in assay buffer containing 50 mM HEPES pH 7.5, 50 mM KCl, 50 mM MgCl2, 0.01% Tween 20 and 10 mM DTT. The reaction is initiated by the addition of the combined substrates ATP and Methionine, each at a final concentration of 100 μM. Final assay condition are 12.5 nM Mat2A, 100 μM ATP and Methionine Substrates and 2% DMSO. After 120 minutes of incubation at RT, the reaction is stopped by the addition of Biomol Green. The absorbance signal is measured at λ=635 nm with a multiplate reader (BMG Pherastar reader or equivalent) after 30 min of equilibration at RT.

Sequence of S-adenosylmethionine synthase isoform type-2 (P31153 whole entry, canonical isoform): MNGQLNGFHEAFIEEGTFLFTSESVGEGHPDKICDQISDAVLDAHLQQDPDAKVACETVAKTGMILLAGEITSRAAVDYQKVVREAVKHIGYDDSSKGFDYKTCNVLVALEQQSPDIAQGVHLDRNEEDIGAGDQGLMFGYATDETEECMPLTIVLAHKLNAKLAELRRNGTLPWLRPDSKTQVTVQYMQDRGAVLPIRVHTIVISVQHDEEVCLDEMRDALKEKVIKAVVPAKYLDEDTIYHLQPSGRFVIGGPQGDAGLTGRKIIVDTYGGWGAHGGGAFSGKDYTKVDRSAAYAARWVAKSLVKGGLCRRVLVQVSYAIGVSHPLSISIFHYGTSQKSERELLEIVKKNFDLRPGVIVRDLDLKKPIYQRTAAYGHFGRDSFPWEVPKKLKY

Row | Compound | IC50
1 | COc1ccccc1C(=O)n1nc(N)c2ccc([C@H]3[C@H](C)[C@@H]3C)nc21 [US20230382911, Example 44] | 13 nM
2 | Cc1ccccc1C(=O)n1nc(N)c2ccc([C@H]3[C@H](C)[C@@H]3C)nc21 [US20230382911, Example 43] | 35 nM
3 | COc1ccccc1C(=O)n1nc(N)c2cc(F)c(N3CCCC3)nc21 [US20230382911, Example 11] | 66 nM
